The values below come from patent US20250154154A1 (Relay Binney Street, 2nd Floor, priority 2020, published 2025).

pIC50: −log10 of the molar value.

Experiment [1] deals with RBE cells. As to the kind of experiment: Cell Viability Protocol (CellTiterGlo), RBE cells. In kind it is cell-based. As to conditions: RBE or SNU-1079 cells, 72 or 120 hour, cell line and time not given. In a few lines: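 RBE cells plated at 1200/well in RPMI 1640 with 10% FBS, incubated 24 h, then dosed with compound from DMSO stocks and incubated 72 or 120 h at 37° C. CellTiterGlo luminescence normalised to DMSO control; IC50 from 4-parameter fit.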
In general terms: ATP-based viability assays read luminescence as a measure of living cells.

For experiment [2], the target named is SRC (Homo sapiens, UniProt P12931). As to the kind of experiment: SRC Biochemical Assay Protocol (microfluidic mobility shift assay, FLPeptide4 substrate). In a few lines:
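Recombinant SRC (0.26 nM) preincubated 30 min at RT with compound (0.0017–100 μM) and 1.5 μM FLPeptide4, then 50 μM ATP added; 90 min reaction in HEPES pH 7.4, 10 mM MgCl2, 1% DMSO, EDTA-quenched. Phosphopeptide quantified by microfluidic mobility shift; IC50 from 4-parameter logistic fit.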

The test system of experiment [3] is phospho-S6RP (Ser 235/236) in RBE cells. The experiment is described as follows: Cellular Proliferation Protocol (cellular phospho-S6RP HTRF), RBE cells. In kind it is cell-based. As to conditions: 6 hours treatment, RBE or SNU-1079 cells, cell line not given. The procedure: Cellular Proliferation Protocol
Cellular phospho-S6RP (Ser 235/236) was measured using a Fluorescence Resonance Energy Transfer (FRET) sandwich assay format (Cisbio HTRF Cat. No. 64RP6PEG). This format uses 2 different, labelled antibodies (Eu^3+-Cryptate donor and d2 acceptor) that positively modulate a specific signal in proportion to phospho-S6RP (Ser 235/236) directly in cells. RBE or SNU-1079 cells were cultivated in T-75 flasks at 37° C., 5% CO2, 95% relative humidity in RPMI 1640 medium with 10% FBS and 1% Penicillin/Streptomycin and detached with trypsin/EDTA at 80-90% confluency. Cells were then seeded in 40 μL volume per well in 384-well flat-bottom polystyrene microplates (Corning Cat. No. 3570) at a seeding density of 2000 cells/well for RBE and 3000 cells/well for SNU-1079 followed by 24 hour incubation at 37° C., 5% CO2, 95% relative humidity. On the next day, compounds were diluted to […] the indicated concentrations and 40 nL of these treatment compounds, along with DMSO vehicle control, were added to the cells (final concentration of compounds is then the indicated concentrations). Treatment was carried out for 6 hours at 37° C., 5% CO2, 95% relative humidity after which the plates were cooled to room temperature before aspirating the medium. Cells were then lysed on a shaker for 45 minutes at room temperature with 20 μL of 1× supplemented lysis buffer per well. After lysis, 5 μL of pre-mixed antibodies was added per well. Plates were covered with black sealing film and incubated overnight at room temperature on a shaker before being read on a PerkinElmer EnVision microplate reader. Percent activation was calculated relative to DMSO control and IC50 values were obtained from dose-response data fitted to a 4-parameter curve.
On the technique in general: In TR-FRET formats the signal depends on donor and acceptor labels being close together.

Sequence of SRC (P12931 whole entry, species assumed): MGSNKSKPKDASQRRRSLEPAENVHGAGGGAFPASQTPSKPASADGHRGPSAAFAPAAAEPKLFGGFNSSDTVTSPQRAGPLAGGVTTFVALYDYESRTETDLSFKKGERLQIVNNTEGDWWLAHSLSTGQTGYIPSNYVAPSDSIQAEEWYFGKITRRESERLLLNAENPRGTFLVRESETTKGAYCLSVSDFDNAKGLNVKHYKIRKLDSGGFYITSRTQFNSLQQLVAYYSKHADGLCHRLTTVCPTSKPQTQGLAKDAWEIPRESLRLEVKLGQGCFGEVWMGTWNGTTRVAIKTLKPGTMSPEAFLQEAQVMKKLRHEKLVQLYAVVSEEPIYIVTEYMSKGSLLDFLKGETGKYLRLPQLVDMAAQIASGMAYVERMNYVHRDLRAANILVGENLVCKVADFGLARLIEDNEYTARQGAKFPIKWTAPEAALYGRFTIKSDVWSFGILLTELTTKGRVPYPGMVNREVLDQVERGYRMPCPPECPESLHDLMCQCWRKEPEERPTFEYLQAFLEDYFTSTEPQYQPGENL

In general, pIC50 refers to −log10 of the IC50, conventionally taken in molar units. On to `Cc1cccc(Oc2ccc(-c3c(C#C[C@@H]4[C@H]5CN(C(=O)/C=C/CN6CCC(F)C6)C[C@@H]45)n(C)c4ncnc(N)c34)cc2)n1` (stereo partly drawn) [II-230, (E)-1-((1R,5S,6s)-6-((4-amino-7-methyl-5-(4-((6-methylpyridin-2-yl)oxy)phenyl)-7H-pyrrolo[2,3-d]pyrimidin-6-yl)ethynyl)-3-azabicyclo[3.1.0]hexan-3-yl)-4-(3-fluoropyrrolidin-1-yl)but-2-en-1-one], for which the pIC50 in experiment [1], in experiment [2] and in experiment [3] (6 h) was 6.00 to 8.00 each time.
Turning to `C=CC(=O)N1CC[C@@H](N2CC(C#Cc3c(-c4ccc5c(c4)N(C)CCO5)c4c(N)ncnc4n3C)C2)[C@@H](O)C1` [II-77], the negative logarithm of the IC50 (pIC50) in experiment [1], in experiment [2] and in experiment [3] was 5.00 to 6.00 in each case.
On to `C=CC(=O)N1C[C@@H]2[C@@H](C#Cc3c(-c4ccc(Oc5ccccc5)cc4OC)c4c(N)ncnc4n3C3CCOC3)[C@@H]2C1` (mixture of isomers) [II-40], for which the pIC50 in experiment [1], in experiment [2] and in experiment [3] was at least 8.00 in each case.
Regarding `C=CC(=O)N1CC[C@@H](N2CC(C#Cc3c(-c4ccc(Oc5ccccc5)cc4)c4c(N)ncnc4n3C)C2)[C@@H](O)C1` [II-165, 1-((3S,4R)-4-(3-((4-amino-7-methyl-5-(4-phenoxyphenyl)-7H-pyrrolo[2,3-d]pyrimidin-6-yl)ethynyl)azetidin-1-yl)-3-hydroxypiperidin-1-yl)prop-2-en-1-one], the negative-log IC50 (pIC50) in experiment [1] is at least 8.00; in experiment [2] it was 6.00 to 8.00; in experiment [3] (6 h), at least 8.00.
Take `C=CC(=O)N1C[C@@H]2[C@@H](C#Cc3c(-c4ccc(Oc5cccc(C)n5)cc4OC)c4c(N)ncnc4n3C)[C@@H]2C1` [II-42]: the pIC50 in experiment [1], in experiment [2] and in experiment [3] was 6.00 to 8.00 in each case.
As to `C=CC(=O)NCC(=O)N1C[C@@H]2[C@@H](C#Cc3c(-c4c(Cl)ccc5c4OCO5)c4c(N)ncnc4n3C)[C@@H]2C1` [II-39], the negative-log IC50 (pIC50) in experiment [1], in experiment [2] and in experiment [3] was at least 8.00 in each case.
Consider `C=CC(=O)N1CCC(N2CC(C#Cc3c(-c4cccc5c4OCO5)c4c(N)ncnc4n3CC)C2)CC1` [II-119], for which the negative logarithm of the IC50 (pIC50) was 6.00 to 8.00 in experiment [1], at least 8.00 in experiment [2] and 6.00 to 8.00 in experiment [3].
As for `C=CC(=O)N1CCC(N2CC(C#Cc3c(-c4ccc(Oc5ccccc5)c(Cl)n4)c4c(N)ncnc4n3C)C2)CC1` [II-314], the pIC50 in experiment [1] is 6.00 to 8.00; in experiment [2], under 5.00; in experiment [3], 6.00 to 8.00.
On to `C=CC(=O)N1CC[C@@H](N2CC(C#Cc3c(-c4ccc(Oc5ccccc5)cc4)c4c(N)ncnc4n3C)C2)[C@@H](F)C1` [II-171, 1-((3S,4R)-4-(3-((4-amino-7-methyl-5-(4-phenoxyphenyl)-7H-pyrrolo[2,3-d]pyrimidin-6-yl)ethynyl)azetidin-1-yl)-3-fluoropiperidin-1-yl)prop-2-en-1-one], for which the negative logarithm of the IC50 (pIC50) in experiment [1] is at least 8.00; in experiment [2], 6.00 to 8.00; in experiment [3] (6 h), at least 8.00.
As to `C=CC(=O)N1CCC(N2CC(C#Cc3c(-c4cc(OC)c(Cl)c(OC)c4)c4c(N)ncnc4n3C)C2)CC1` [II-91], the pIC50 in experiment [1], in experiment [2] and in experiment [3] was 6.00 to 8.00 each time.
Regarding `C=CC(=O)N1CCC(N2CC(C#Cc3c(-c4ccc(Oc5cccc(C)n5)cc4)c4c(N)ncnc4n3C)C2)C(O)C1` (stereo not drawn) [II-215, 1-(4-(3-((4-amino-7-methyl-5-(4-(6-methylpyridin-2-yloxy)phenyl)-7H-pyrrolo[2,3-d]pyrimidin-6-yl)ethynyl)azetidin-1-yl)-3-hydroxypiperidin-1-yl)prop-2-en-1-one], the pIC50 in experiment [1], in experiment [2] and in experiment [3] (6 h) was 6.00 to 8.00 each time.
As for `C=CC(=O)N1CCC(N2CC(C#Cc3c(-c4ccc(Oc5ccccc5)cc4)c4c(N)ncnc4n3CCOC)C2)CC1` [II-189, 1-(4-(3-((4-amino-7-(2-methoxyethyl)-5-(4-phenoxyphenyl)-7H-pyrrolo[2,3-d]pyrimidin-6-yl)ethynyl)azetidin-1-yl)piperidin-1-yl)prop-2-en-1-one], the pIC50 in experiment [1] is 5.00 to 6.00; in experiment [2], 6.00 to 8.00; in experiment [3] (6 h), 5.00 to 6.00.
Take `C=CC(=O)N1C[C@@H]2[C@@H](C#Cc3c(-c4ccc(Oc5ccccn5)cc4)c4c(N)ncnc4n3C3CCOC3)[C@@H]2C1` (mixture of isomers) [II-23]: the results for the negative-log IC50 (pIC50) in experiment [1], in experiment [2] and in experiment [3] were at least 8.00, 6.00 to 8.00 and at least 8.00, respectively.
Take `C=CC(=O)N1CCC(N2CC(C#Cc3c(-c4cccc5c4OCO5)c4c(N)ncnc4n3C(C)C)C2)C(O)C1` (stereo not drawn) [II-108]: the pIC50 in experiment [1], in experiment [2] and in experiment [3] was at least 8.00 in each case.
For `C=CC(=O)N1CC[C@H](N2CC(C#Cc3c(-c4ccc(Oc5ccccc5)c(OC)c4)c4c(N)nccc4n3C)C2)[C@H](O)C1` [II-79], the pIC50 in experiment [1], in experiment [2] and in experiment [3] was 6.00 to 8.00 throughout.
Regarding `COc1cc(-c2c(C#C[C@@H]3[C@H]4CN(C(=O)/C=C/CN5CCC(F)C5)C[C@@H]34)n(C)c3ncnc(N)c23)ccc1Oc1cccc(C)n1` (stereo partly drawn) [II-238, (E)-1-((1R,5S,6s)-6-((4-amino-5-(3-methoxy-4-((6-methylpyridin-2-yl)oxy)phenyl)-7-methyl-7H-pyrrolo[2,3-d]pyrimidin-6-yl)ethynyl)-3-azabicyclo[3.1.0]hexan-3-yl)-4-(3-fluoropyrrolidin-1-yl)but-2-en-1-one], the negative logarithm of the IC50 (pIC50) in experiment [1], in experiment [2] and in experiment [3] (6 h) was 6.00 to 8.00 in each case.
In the case of `C=CC(=O)N1CC[C@@H](N2CC(C#Cc3c(-c4ccc(OC)c(OC)c4)c4c(N)ncnc4n3C)C2)[C@@H](O)C1` [II-76], the pIC50 in experiment [1] was 5.00 to 6.00; in experiment [2] it was 6.00 to 8.00; in experiment [3] it was 5.00 to 6.00.
In the case of `C=CC(=O)N1CCC(N2CC(C#Cc3c(-c4ccc(Oc5ccccc5)cc4)c4c(N)ncnc4n3C3CC(=O)N(C)C3)C2)CC1` (stereo not drawn) [II-213, 4-(6-((1-(1-acryloylpiperidin-4-yl)azetidin-3-yl)ethynyl)-4-amino-5-(4-phenoxyphenyl)-7H-pyrrolo[2,3-d]pyrimidin-7-yl)-1-methylpyrrolidin-2-one], the pIC50 in experiment [1], in experiment [2] and in experiment [3] (6 h) was 5.00 to 6.00 in each case.
On to `C=CC(=O)N1CCC(N2CC(C#Cc3c(-c4cccc5c4OCO5)c4c(N)ncnc4n3C)C2)CC1` [II-37], for which the negative-log IC50 (pIC50) in experiment [1], in experiment [2] and in experiment [3] was 6.00 to 8.00 each time.
As to `C=CC(=O)N1C[C@@H]2[C@@H](C#Cc3c(-c4ccc(Oc5cnccn5)cc4)c4c(N)ncnc4n3C)[C@@H]2C1` [II-22], the pIC50 in experiment [1], in experiment [2] and in experiment [3] was 6.00 to 8.00 in each case.
For the compound `C=CC(=O)N1CC[C@H](N2CC(C#Cc3c(-c4ccccc4OC)c4c(N)ncnc4n3C)C2)[C@H](O)C1` [II-274], the figures for the pIC50 in experiment [1], in experiment [2] and in experiment [3] (6 h) were 5.00 to 6.00, 6.00 to 8.00 and 5.00 to 6.00, respectively.
`C=CC(=O)N1C[C@@H]2[C@@H](C#Cc3c(-c4cccc5c4OCO5)c4c(N)ncnc4n3C(C)C)[C@@H]2C1` [II-132]: the negative-log IC50 (pIC50) in experiment [1], in experiment [2] and in experiment [3] was at least 8.00 throughout.
For `C=CC(=O)N1CCC(N2CC(C#Cc3c(-c4ccc(Cl)c(C)c4)c4c(N)ncnc4n3C)C2)CC1` [II-94], the pIC50 in experiment [1], in experiment [2] and in experiment [3] was 6.00 to 8.00 in each case.
Regarding `C/C=C/S(=O)(=O)N1CCC(N2CC(C#Cc3c(-c4ccc(Oc5ccccc5)cc4)c4c(N)ncnc4n3C)C2)CC1` [II-177, (E)-7-methyl-5-(4-phenoxyphenyl)-6-((1-(1-(prop-1-enylsulfonyl)piperidin-4-yl)azetidin-3-yl)ethynyl)-7H-pyrrolo[2,3-d]pyrimidin-4-amine], the negative logarithm of the IC50 (pIC50) in experiment [1], in experiment [2] and in experiment [3] (6 h) was 6.00 to 8.00 in each case.
Consider `C=CC(=O)N1CC[C@@H](N2CC(C#Cc3c(-c4ccc(Cl)c(OC)c4)c4c(N)ncnc4n3C(C)C)C2)[C@@H](O)C1` [II-55], for which the pIC50 was 6.00 to 8.00 in experiment [1], at least 8.00 in experiment [2] and at least 8.00 in experiment [3].
Take `C=CC(=O)N1CC[C@H](N2CC(C#Cc3c(-c4ccc(Cl)c(C(F)F)c4)c4c(N)ncnc4n3C(C)C)C2)[C@H](O)C1` [II-118]: the pIC50 was 6.00 to 8.00 in experiment [1], at least 8.00 in experiment [2] and 6.00 to 8.00 in experiment [3].
